Test results taken from patent EP3928779A1 (Chugai Seiyaku Kabushiki Kaisha, priority 2014, dated 2016).

Tested on: rat small-intestinal brush border membrane vesicles
Assay: Inhibitory effect on 33PO4 uptake into rat small-intestinal brush border membrane vesicles (rapid filtration method)
Format: biochemical
Details: 33PO4 uptake into rat small-intestinal BBMVs; test compound 1 µM; reacted for 60 seconds
Summary of the method: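 Uptake of ^33PO4 was measured by rapid filtration and liquid scintillation counting of filter-retained vesicles, after quenching with ice-cold 110 mM NaCl/1 mM KH2PO4/10 mM HEPES pH 7.5. Vesicles were brush border membranes from the upper small intestine of female Wistar rats aged 4–5 weeks.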

Row | Compound | Rate of uptake inhibition (%) (1 µM)
1 | COCCN(C)CCOc1c(I)cc(CN2C(=O)C(C(=O)Nc3ccc(C(F)(F)F)cc3-c3cc(C(F)(F)F)ncn3)=C(O)C3(CCCC3)N2C)c(F)c1F [Example 437, 7-[[2,3-Difluoro-5-iodo-4-[2-[2-methoxyethyl(methyl)amino]ethoxy]phenyl]methyl]-10-hydroxy-6-methyl-8-oxo-N-[4-(trifluoromethyl)-2-[6-(trifluoromethyl)pyrimidin-4-yl]phenyl]-6,7-diazaspiro[4.5]dec-9-ene-9-carboxamide] | 45
2 | Cc1c(C#N)ncnc1-c1cc(C(F)(F)F)ccc1NC(=O)C1=C(O)C2(CCC2)N(C)N(Cc2ccc(OCCN3CCOCC3)c(F)c2F)C1=O [Example 283] | 45
3 | CSc1ccc(-c2nc(C(F)(F)F)ccc2NC(=O)C2=C(O)[C@@]3(C)CCCN3N(Cc3cccc(F)c3F)C2=O)cn1 [Example 105] | 72
4 | CC1(C)C(O)=C(C(=O)Nc2ccc(C(F)(F)F)cc2-c2cc(C(F)(F)F)ncn2)C(=O)N(Cc2cccc(F)c2F)N1c1ccccc1 [Example 299] | 45
5 | CC(CN1CCOCC1)Oc1ccc(CN2C(=O)C(C(=O)Nc3ccc(C(F)(F)F)cc3-c3cc(C(F)(F)F)ncn3)=C(O)C3(CCC3)N2C)c(F)c1F (centres unmarked) [Example 408] | 47
6 | COc1cccc(-c2cc(C(F)(F)F)ccc2NC(=O)C2=C(O)[C@@]3(C)CCCN3N(Cc3ccc(C#CCOCCOCCO)c(F)c3F)C2=O)c1OC [Example 139] | 88
7 | Cc1cc(NC(=O)C2=C(O)[C@H]3CCCCN3N(Cc3cccc(F)c3)C2=O)c(C(F)(F)F)o1 [Example 15, (4aR)-1-[(3-Fluorophenyl)methyl]-4-hydroxy-N-[5-methyl-2-(trifluoromethyl)furan-3-yl]-2-oxo-5,6,7,8-tetrahydro-4aH-pyrido[1,2-b]pyridazine-3-carboxamide] | 42
8 | CN1N(Cc2ccc(OCCCCCOC[C@H](O)CO)c(F)c2F)C(=O)C(C(=O)Nc2ccc(C(F)(F)F)cc2-c2ccc(C(F)(F)F)nc2)=C(O)C12CCCC2 [Example 388] | 15
9 | C[C@]12CCCN1N(Cc1c(F)cccc1Cl)C(=O)C(C(=O)Nc1ccc(C(F)(F)F)cc1-c1cc(C(F)(F)F)ncn1)=C2O [Example 210] | 71
10 | CN1N(Cc2ccc(OCCN3CCOCC3)c(F)c2F)C(=O)C(C(=O)Nc2ccc(Br)c(C(F)(F)F)n2)=C(O)C12CCCCC2 [Example 298] | 10
11 | (4aR)-1-[(3-Fluorophenyl)methyl]-4-hydroxy-4a-methyl-N-[5-methyl-2-(trifluoromethyl)furan-3-yl]-2-oxo-6,7-dihydro-5H-pyrrolo[1,2-b]pyridazine-3-carboxamide [Example 6] | 48
12 | C[C@]12CCCN1N(Cc1cccc(F)c1F)C(=O)C(C(=O)Nc1ccc(C(F)(F)F)cc1-c1cnc(Cl)cn1)=C2O [Example 74] | 82
13 | CCN(CCN(C)CCOC)c1ccc(CN2C(=O)C(C(=O)Nc3ccc(C(F)(F)F)cc3-c3cc(C(F)(F)F)ncn3)=C(O)C3(CCCC3)N2C)c(F)c1F [Example 443] | 28
14 | CN(CCOc1ccc(CN2C(=O)C(C(=O)Nc3ccc(C(F)(F)F)cc3-c3cc(C(F)(F)F)ncn3)=C(O)C3(CCC3)N2C)c(F)c1F)C1CCOC1 (centres unmarked) [Example 338, 6-[[2,3-Difluoro-4-[2-[methyl(oxolan-3-yl)amino]ethoxy]phenyl]methyl]-9-hydroxy-5-methyl-7-oxo-N-[4-(trifluoromethyl)-2-[6-(trifluoromethyl)pyrimidin-4-yl]phenyl]-5,6-diazaspiro[3.5]non-8-ene-8-carboxamide] | 66
15 | Cc1cccc(CN2C(=O)C(C(=O)Nc3ccc(C(F)(F)F)cc3-c3ccc(C(F)(F)F)nc3)=C(O)[C@@]3(C)CCCN23)c1F [Example 205] | 86
16 | CCN1[C@@H](C(C)(C)C)C(O)=C(C(=O)Nc2ccc(Cl)cc2-c2ccc(C(F)(F)F)nc2)C(=O)N1Cc1cccc(F)c1F [Example 245] | 40
17 | C[C@]12CCCN1N(Cc1cccc(F)c1F)C(=O)C(C(=O)Nc1ccc(C(F)(F)F)cc1-c1cncc(C#N)c1)=C2O [Example 82] | 100
18 | CN1N(Cc2cccc(F)c2F)C(=O)C(C(=O)Nc2ccc(Br)c(C(F)(F)F)n2)=C(O)C12CCCC2 [Example 263] | 66
19 | CN1N(Cc2ccc(OCCN3C4CCC3COC4)c(F)c2F)C(=O)C(C(=O)Nc2ccc(C(F)(F)F)cc2-c2cc(C(F)(F)F)ncn2)=C(O)C12CCC2 [Example 340] | 63

Row | Compound | Rate of uptake inhibition (%) (1 µM)
20 | (4aS)-1-[(5,6-Difluoro-1H-indol-7-yl)methyl]-4-hydroxy-N-[5-methyl-2-(trifluoromethyl)furan-3-yl]-2-oxo-5,6,7,8-tetrahydro-4aH-pyrido[1,2-b]pyridazine-3-carboxamide [Example 17] | 33
21 | C[C@]12CCCN1N(Cc1cccc(F)c1F)C(=O)C(C(=O)Nc1ccc(Br)cc1-c1ccc(Cl)nc1)=C2O [Example 122, (4aR)-N-[4-Bromo-2-(6-chloropyridin-3-yl)phenyl]-1-[(2,3-difluorophenyl)methyl]-4-hydroxy-4a-methyl-2-oxo-6,7-dihydro-5H-pyrrolo[1,2-b]pyridazine-3-carboxamide] | 82
22 | CN1N(Cc2ccc(NCCCN3CCOCC3)c(F)c2F)C(=O)C(C(=O)Nc2ccc(C(F)(F)F)cc2-c2cc(C(F)(F)F)ncn2)=C(O)C12CCCC2 [Example 446] | 31
23 | CN1CCC(Oc2ccc(CN3C(=O)C(C(=O)Nc4ccc(C(F)(F)F)cc4-c4cc(C(F)(F)F)ncn4)=C(O)C4(CCC4)N3C)c(F)c2F)CC1 [Example 411] | 32
24 | CN1N(Cc2ccc(OCC3CCCO3)c(F)c2F)C(=O)C(C(=O)Nc2ccc(C(F)(F)F)cc2-c2cc(C(F)(F)F)ncn2)=C(O)C12CCCC2 (centres unmarked) [Example 413] | 34
25 | CSc1ncc(-c2cc(C(F)(F)F)ccc2NC(=O)C2=C(O)[C@@]3(C)CCCN3N(Cc3ccc(OCCN4CCOCC4)c(F)c3F)C2=O)cn1 [Example 104] | 73
26 | CC1(C)CC[C@]2(C)C(O)=C(C(=O)Nc3cc(C(F)(F)F)ccc3-c3ccc(C(F)(F)F)nc3)C(=O)N(Cc3cccc(F)c3F)N12 [Example 63] | 72
27 | (4aR)-4a-Ethyl-1-[(3-fluorophenyl)methyl]-4-hydroxy-N-[5-methyl-2-(trifluoromethyl)furan-3-yl]-2-oxo-6,7-dihydro-5H-pyrrolo[1,2-b]pyridazine-3-carboxamide [Example 9] | 63
28 | CSc1ccc(-c2cc(C(F)(F)F)ccc2NC(=O)C2=C(O)C(C)(C)N(C)N(Cc3cccc(F)c3F)C2=O)cn1 [Example 310] | 63
29 | CN(CCOCCC(=O)NCC(O)CO)CCOc1ccc(CN2C(=O)C(C(=O)Nc3ccc(C(F)(F)F)cc3-c3cc(C(F)(F)F)ncn3)=C(O)C3(CCCC3)N2C)c(F)c1F (centres unmarked) [Example 426] | 24
30 | CCC1(CC)C(O)=C(C(=O)Nc2ccc(C(F)(F)F)cc2-c2cc(C(F)(F)F)ncn2)C(=O)N(Cc2ccc(OCCN3CCOCC3)c(F)c2F)N1C [Example 291] | 47
31 | CN1[C@@H](C(C)(C)C)C(O)=C(C(=O)Nc2ccc(C(F)(F)F)cc2-c2ccc(C(F)(F)F)nc2)C(=O)N1Cc1ccc(OCCN2CCOCC2)c(F)c1F [Example 266] | 62
32 | CSc1ccc(-c2cc(C(F)(F)F)ccc2NC(=O)C2=C(O)[C@@]3(C)CCCN3N(Cc3ccc(CCCCCCC(=O)O)c(F)c3F)C2=O)cn1 [Example 115, 7-[4-[[(4aR)-4-1-Hydroxy-4a-methyl-3-[[2-(6-methylsulfanylpyridin-3-yl)-4-(trifluoromethyl)phenyl]carbamoyl]-2-oxo-6,7-dihydro-5H-pyrrolo[1,2-b]pyridazin-1-yl]methyl]-2,3-difluorophenyl]heptanoate] | 85
33 | CN1N(Cc2ccc(OC(C)(C)CN3CCOCC3)c(F)c2F)C(=O)C(C(=O)Nc2ccc(C(F)(F)F)cc2-c2cc(C(F)(F)F)ncn2)=C(O)C12CCC2 [Example 407, 6-[[2,3-Difluoro-4-(2-methyl-1-morpholin-4-ylpropan-2-yl)oxyphenyl]methyl]-9-hydroxy-5-methyl-7-oxo-N-[4-(trifluoromethyl)-2-[6-(trifluoromethyl)pyrimidin-4-yl]phenyl]-5,6-diazaspiro[3.5]non-8-ene-8-carboxamide] | 30
34 | COc1cccc(-c2cc(C(F)(F)F)ccc2NC(=O)C2=C(O)[C@@]3(C)CCCN3N(Cc3ccc(C#CCCCO)c(F)c3F)C2=O)c1OC [Example 138] | 93
35 | C[C@]12CCCN1N(Cc1ccccc1C#N)C(=O)C(C(=O)Nc1cc(F)c(Br)c(F)c1)=C2O [Example 218] | 82
36 | C[C@]12CCCN1N(Cc1cccc(F)c1F)C(=O)C(C(=O)Nc1ccc(C(F)(F)F)cc1-c1cnc(C#N)c([N+](=O)[O-])c1)=C2O [Example 99, (4aR)-N-[2-(6-Cyano-5-nitropyridin-3-yl)-4-(trifluoromethyl)phenyl]-1-[(2,3-difluorophenyl)methyl]-4-hydroxy-4a-methyl-2-oxo-6,7-dihydro-5H-pyrrolo[1,2-b]pyridazine-3-carboxamide] | 82
37 | CN1N(Cc2ccc(C#CCN3CCOCC3)c(F)c2F)C(=O)C(C(=O)Nc2ccc(Cl)cc2-c2cc(C(F)(F)F)ncn2)=C(O)C1(C)C [Example 316, N-[4-Chloro-2-[6-(trifluoromethyl)pyrimidin-4-yl]phenyl]-2-[[2,3-difluoro-4-(3-morpholin-4-ylprop-1-ynil)phenyl]methyl]-5-hydroxy-1,6,6-trimethyl-3-oxopyridaxine-4-carboxamide] | 64
38 | C[C@@]12CCCN1N(Cc1ccc(OCCN3CCOCC3)c(F)c1F)C(=O)C(C(=O)Nc1ccc(Cl)cc1-c1cc(C(F)(F)F)ncn1)=C2O.Cl [Example 107] | 54
